Key:
Experiment in all cases: relative viability (nuclei count vs DMSO), 5 days (fraction); higher = more cells survive
Axitinib + Decitabine = compound: CNC(=O)c1ccccc1Sc1ccc2c(/C=C/c3ccccn3)n[nH]c2c1 [Axitinib] + Nc1ncn([C@H]2C[C@H](O)[C@@H](CO)O2)c(=O)n1 [Decitabine] (partner 2 µM)
In short: (§1)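 Relative viability was taken as the ratio of nuclei in treated wells to nuclei in vehicle wells. Lung cancer cell lines in 1536-well plates received compounds by pin tool one day after seeding, either one drug alone or a fixed anchor-drug dose plus five library-drug doses (not always all listed) in √10 steps. Nuclei were counted on 4× images after 5 days of treatment, and values are medians of duplicate plates.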

Axitinib + Vorinostat = compound: CNC(=O)c1ccccc1Sc1ccc2c(/C=C/c3ccccn3)n[nH]c2c1 [Axitinib] + O=C(CCCCCCC(=O)Nc1ccccc1)NO [Vorinostat] (partner 1 µM)
In short: as §1

Bemcentinib + Vorinostat = compound: Nc1nc(Nc2ccc3c(c2)CC[C@@H](N2CCCC2)CC3)nn1-c1cc2c(nn1)-c1ccccc1CCC2 [Bemcentinib] + O=C(CCCCCCC(=O)Nc1ccccc1)NO [Vorinostat] (partner 1 µM)
In short: as §1

Axitinib + Crizotinib = compound: CNC(=O)c1ccccc1Sc1ccc2c(/C=C/c3ccccn3)n[nH]c2c1 [Axitinib] + C[C@@H](Oc1cc(-c2cnn(C3CCNCC3)c2)cnc1N)c1c(Cl)ccc(F)c1Cl [Crizotinib] (partner 1 µM)
In short: as §1

Cell Line | relative viability (Axitinib + Decitabine; first compound 0.005 µM) | relative viability (Axitinib + Decitabine; first compound 0.01581 µM) | relative viability (Axitinib + Decitabine; first compound 0.05 µM) | relative viability (Axitinib + Decitabine; first compound 0.1581 µM) | relative viability (Axitinib + Decitabine; first compound 0.5 µM) | relative viability (Axitinib + Vorinostat; first compound 0.005 µM) | relative viability (Axitinib + Vorinostat; first compound 0.01581 µM) | relative viability (Axitinib + Vorinostat; first compound 0.05 µM) | relative viability (Axitinib + Vorinostat; first compound 0.1581 µM) | relative viability (Axitinib + Vorinostat; first compound 0.5 µM) | relative viability (Bemcentinib + Vorinostat; first compound 0.04 µM) | relative viability (Bemcentinib + Vorinostat; first compound 0.1265 µM) | relative viability (Bemcentinib + Vorinostat; first compound 0.4 µM) | relative viability (Bemcentinib + Vorinostat; first compound 1.265 µM) | relative viability (Bemcentinib + Vorinostat; first compound 4 µM) | relative viability (Axitinib + Crizotinib; first compound 0.005 µM) | relative viability (Axitinib + Crizotinib; first compound 0.01581 µM) | relative viability (Axitinib + Crizotinib; first compound 0.05 µM) | relative viability (Axitinib + Crizotinib; first compound 0.1581 µM) | relative viability (Axitinib + Crizotinib; first compound 0.5 µM)
NCI-H1648 | 0.537 | 0.574 | 0.568 | 0.519 | 0.478 | 0.37 | 0.514 | 0.316 | 0.34 | 0.363 | 0.598 | 0.362 | 0.385 | 0.386 | 0.457 | – | – | – | – | –
NCI-H358 | 0.226 | 0.222 | 0.221 | 0.214 | 0.198 | 0.698 | 0.675 | 0.689 | 0.573 | 0.726 | 0.665 | 0.745 | 0.701 | 0.806 | 0.839 | 0.401 | 0.636 | 0.625 | 0.549 | 0.596
NCI-H1944 | 0.47 | 0.428 | 0.452 | 0.397 | 0.455 | 0.616 | 0.54 | 0.585 | 0.498 | 0.518 | 0.521 | 0.611 | 0.608 | 0.527 | 0.561 | 1.05 | 1.24 | 1.03 | 1.15 | 1.18
NCI-H1792 | 0.527 | 0.508 | 0.429 | 0.533 | 0.575 | – | – | – | – | – | – | – | – | – | – | 1.02 | 0.988 | 0.987 | 0.962 | 0.955
ABC-1 | 1.35 | – | 0.866 | 0.964 | 1.01 | 1.15 | – | 1.13 | 1.47 | 1.34 | 1.01 | 1.1 | 1.11 | 0.856 | 0.892 | 1.21 | 1.28 | 1.2 | 1.13 | 1.28
CAL-12T | – | – | – | – | – | 0.869 | 0.72 | 0.686 | 0.737 | 1.12 | 0.907 | 1 | 0.824 | 0.762 | 0.831 | 0.675 | 0.75 | 0.529 | 0.834 | 0.537
NCI-H1703 | – | – | – | – | – | – | – | – | – | – | – | – | – | – | – | 0.777 | 0.27 | 0.158 | 0.136 | 0.237
NCI-H522 | 0.639 | 0.725 | 0.625 | 0.63 | 0.624 | 0.919 | 0.909 | 0.863 | 0.855 | 0.702 | 0.87 | 0.959 | 0.859 | 0.799 | 0.907 | – | – | – | – | –
NCI-H2228 | – | – | – | – | – | 0.818 | 0.618 | 0.605 | 0.506 | 0.885 | 0.574 | 0.878 | 0.763 | 0.749 | 0.756 | 0.443 | 0.473 | 0.384 | 0.612 | 0.438
NCI-H1563 | – | – | – | – | – | – | – | – | – | – | – | – | – | – | – | 0.957 | 0.791 | 0.877 | 0.833 | 0.907
NCI-H1395 | 0.795 | 0.681 | 0.622 | 0.746 | 0.751 | 0.706 | 0.529 | 0.709 | 0.639 | 0.649 | – | 0.681 | 0.674 | 0.716 | 0.634 | – | – | – | – | –

Reference: the supplement of paper PMC10307832
